The target in one experiment is IRAK4 enzyme (Homo sapiens (Human), UniProt Q9NWZ3). Description: biochemical. Type of experiment: biochemical.
Another experiment deals with TNFα. As to the kind of experiment: cells. To be noted: read-out: EC50 TNF. Type of experiment: cell-based, human.
[1] abbreviates: IRAK4 enzyme, TR-FRET, 500 μM ATP.
Where [2] appears, read: Homo sapiens, Monocyte, LPS-stimulated human monocytes, TNFα content.

Read-outs that look alike come from different tables or passages of the source.

IRAK4 enzyme, sequence (Q9NWZ3 whole entry): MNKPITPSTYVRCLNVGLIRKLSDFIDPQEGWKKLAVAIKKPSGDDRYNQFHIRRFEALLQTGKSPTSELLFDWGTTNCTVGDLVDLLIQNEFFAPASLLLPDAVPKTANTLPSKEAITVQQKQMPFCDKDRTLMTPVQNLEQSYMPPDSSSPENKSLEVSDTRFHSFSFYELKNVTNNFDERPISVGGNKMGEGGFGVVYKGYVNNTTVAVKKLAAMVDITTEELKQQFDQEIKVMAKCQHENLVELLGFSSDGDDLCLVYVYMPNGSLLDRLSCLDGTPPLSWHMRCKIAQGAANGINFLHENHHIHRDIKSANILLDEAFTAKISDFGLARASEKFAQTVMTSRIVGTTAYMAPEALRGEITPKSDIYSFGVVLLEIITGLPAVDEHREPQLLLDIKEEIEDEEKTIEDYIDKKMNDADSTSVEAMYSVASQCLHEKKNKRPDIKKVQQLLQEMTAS

Compound `CC(C)(O)[C@H](F)CNC(=O)c1cnc(-c2ccc3cc(C#N)cnn23)cc1N[C@H]1CC[C@@H](NC(=O)C(F)(F)F)CC1` [Example 319, 6-(3-cyanopyrrolo[1,2-b]pyridazin-7-yl)-N-((R)-2-fluoro-3-hydroxy-3-methyl-butyl)-4-(((1s,4S)-4-(2,2,2-trifluoroacetamido)cyclo-hexyl)amino)nicotinamide] displayed a 50% inhibitory concentration (IC50) on IRAK4 enzyme (setting [1]) of 19 nM. Further, the EC50 with TNFα (setting [2]) stood at 2220 nM.
In the case of `CC(=O)N[C@H]1CC[C@@H](Nc2cc(-c3ccc4cc(C#N)cnn34)ncc2C(=O)NC[C@@H](F)C(C)(C)O)CC1` [Example 320, 4-(((1s,4S)-4-acetamidocyclohexyl)amino)-6-(3-cyano-pyrrolo[1,2-b]pyridazin-7-yl)-N-((R)-2-fluoro-3-hydroxy-3-methylbutyl) nicotinamide], half-maximal inhibition on IRAK4 enzyme (setting [1]) (IC50) was put at 3 nM. In the experiment on TNFα (setting [2]), the EC50 is 1910 nM.
`CC(C)(O)[C@H](F)CNC(=O)c1cnc(-c2ccc3cc(C#N)cnn23)cc1NC1CC1CO` (stereo partly drawn) [Example 321, 6-(3-cyanopyrrolo[1,2-b]pyridazin-7-yl)-N-((R)-2-fluoro-3-hydroxy-3-methylbutyl)-4-((2-(hydroxymethyl)cyclo-propyl)amino)nicotinamide] registered an IC50 against IRAK4 enzyme (setting [1]) of less than 1 nM. The EC50 in the experiment with TNFα (LPS-stimulated human monocytes, TNFα content) amounted to 38 nM.
Compound `CC(C)Nc1cc(-c2ccc3cc(C#N)cnn23)ncc1C(=O)N[C@H]1CCOC[C@@H]1F` [Example 322, 6-(3-cyanopyrrolo[1,2-b]pyridazin-7-yl)-N-((3R,4S)-3-fluorotetrahydro-2H-pyran-4-yl)-4-(isopropylamino) nicotinamide] showed an IC50 on IRAK4 enzyme (setting [1]) of 5 nM. The EC50 in the experiment with TNFα (setting [2]) stood at 169 nM.
On IRAK4 enzyme (setting [1]), `CC(C)Nc1cc(-c2ccc3cc(C#N)cnn23)ncc1C(=O)N[C@@H]1CCOC[C@H]1F` [Example 323, 6-(3-cyanopyrrolo[1,2-b]pyridazin-7-yl)-N-((3S,4R)-3-fluoro-tetrahydro-2H-pyran-4-yl)-4-(isopropylamino) nicotinamide] yielded a half-inhibitory concentration (IC50) of 5 nM. Besides, in the experiment with TNFα (setting [2]), the EC50 came to 187 nM.
The like results for `C[C@@H](O)C(=O)N1CCC(Nc2cc(-c3ccc4cc(C#N)cnn34)ncc2C(=O)NC[C@@H](F)C(C)(C)O)CC1` [Example 324, 6-(3-cyanopyrrolo[1,2-b]pyridazin-7-yl)-N-((R)-2-fluoro-3-hydroxy-3-methylbutyl)-4-((1-((R)-2-hydroxy-propanoyl)piperidin-4-yl)amino)nicotinamide] were, in that order, 2 nM and 157 nM.
The like results for `CC1(C(=O)N2CCC(Nc3cc(-c4ccc5cc(C#N)cnn45)ncc3C(=O)NC[C@@H](F)C(C)(C)O)CC2)COC1` [Example 325, (R)-6-(3-cyanopyrrolo[1,2-b]pyridazin-7-yl)-N-(2-fluoro-3-hydroxy-3-methylbutyl)-4-((1-(3-methyloxetane-3-carbonyl)piperidin-4-yl)amino)nicotinamide] were, in that order, 3 nM and 228 nM.
On IRAK4 enzyme, `CC(=O)N[C@H]1CC[C@H](Nc2cc(-c3ccc4cc(C#N)cnn34)ncc2C(=O)NC[C@@H](F)C(C)(C)O)CC1` [Example 326, 4-(((1r,4R)-4-acetamidocyclohexyl)amino)-6-(3-cyanopyrrolo[1,2-b]pyridazin-7-yl)-N-((R)-2-fluoro-3-hydroxy-3-methylbutyl)nicotinamide] registered an IC50 of less than 1 nM. In addition, in the experiment on TNFα (Homo sapiens, Monocyte), the EC50 came out at 56 nM.
At IRAK4 enzyme (setting [1]), `CC(C)(O)[C@H](F)CNC(=O)c1cnc(-c2ccc3cc(C#N)cnn23)cc1NC1CCNC(=O)C1` (stereo partly drawn) [Example 327, 6-(3-cyanopyrrolo[1,2-b]pyridazin-7-yl)-N-((R)-2-fluoro-3-hydroxy-3-methylbutyl)-4-((2-oxo-piperidin-4-yl)amino)nicotinamide] displayed a 50% inhibitory concentration (IC50) of 1 nM. In addition, the EC50 with TNFα (setting [2]) stood at 738 nM.
Compound `COCC(=O)N1CCC(Nc2cc(-c3ccc4cc(C#N)cnn34)ncc2C(=O)NC[C@@H](F)C(C)(C)O)CC1` [Example 328, (R)-6-(3-cyanopyrrolo[1,2-b]pyridazin-7-yl)-N-(2-fluoro-3-hydroxy-3-methylbutyl)-4-((1-(2-methoxyacetyl)piperidin-4-yl)amino)nicotinamide] came in with an IC50 against IRAK4 enzyme (setting [1]) of 6 nM. Moreover, the concentration for a half-maximal effect (EC50) in the experiment with TNFα (setting [2]) was 300 nM.
With `CC(C)(O)[C@H](F)CNC(=O)c1cnc(-c2ccc3cc(C#N)cnn23)cc1NC1CCN(CC(F)(F)F)CC1` [Example 329, (R)-6-(3-cyanopyrrolo[1,2-b]pyridazin-7-yl)-N-(2-fluoro-3-hydroxy-3-methylbutyl)-4-((1-(2,2,2-trifluoroethyl)piperidin-4-yl)amino)nicotinamide], 1 nM corresponded to half-maximal inhibition at IRAK4 enzyme (setting [1]) (IC50). The EC50 with TNFα (setting [2]) was 62 nM.
The compound `CC(C)Nc1cc(-c2ccc3cc(C#N)cnn23)ncc1C(=O)NCC(O)C(C)(C)O` (centres unmarked) [Example 330, 6-(3-cyanopyrrolo[1,2-b]pyridazin-7-yl)-N-(2,3-dihydroxy-3-methyl-butyl)-4-(isopropylamino) nicotinamide] returned an IC50 against IRAK4 enzyme (setting [1]) of 6 nM. In addition, in the experiment with TNFα (setting [2]), the EC50 turned out to be 171 nM.
Take `N#Cc1cnn2c(-c3cc(NC45CCC(O)(CC4)CC5)c(C(=O)NCC(=O)N4CC(F)(F)C4)cn3)ccc2c1` [Example 331, 6-(3-cyanopyrrolo[1,2-b]pyridazin-7-yl)-N-(2-(3,3-difluoroazetidin-1-yl)-2-oxoethyl)-4-((4-hydroxybicyclo[2.2.2]octan-1-yl)amino) nicotinamide]: the IC50 against IRAK4 enzyme (setting [1]) is less than 1 nM. In the experiment with TNFα (setting [2]), the EC50 turned out to be 25 nM.
`CC(C)Nc1cc(-c2ccc3cc(C#N)cnn23)ncc1C(=O)NCC(=O)C(C)(C)O` [Example 332, 6-(3-cyanopyrrolo[1,2-b]pyridazin-7-yl)-N-(3-hydroxy-3-methyl-2-oxobutyl)-4-(isopropyl-amino)nicotinamide] yielded an IC50 against IRAK4 enzyme (setting [1]) of less than 1 nM. Also, the EC50 in the experiment with TNFα (setting [2]) worked out at 43 nM.
As for `CN(C)C(=O)CNC(=O)c1cnc(-c2ccc3cc(C#N)cnn23)cc1NC12CCC(O)(CC1)CC2` [Example 333, 6-(3-cyanopyrrolo[1,2-b]pyridazin-7-yl)-N-(2-(dimethylamino)-2-oxo-ethyl)-4-((4-hydroxy-bicyclo[2.2.2]octan-1-yl)amino)nicotinamide], the IC50 on IRAK4 enzyme (setting [1]) was less than 1 nM. The EC50 in the experiment on TNFα (setting [2]) stood at 87 nM.
The like results for `CNC(=O)CNC(=O)c1cnc(-c2ccc3cc(C#N)cnn23)cc1NC12CCC(O)(CC1)CC2` [Example 334, 6-(3-cyanopyrrolo[1,2-b]pyridazin-7-yl)-4-((4-hydroxybicyclo[2.2.2]octan-1-yl)amino)-N-(2-(methylamino)-2-oxoethyl)nicotinamide] were, in that order, less than 1 nM and 292 nM.
On IRAK4 enzyme (setting [1]), `CC(C)(O)[C@H](F)CNC(=O)c1cnc(-c2ccc3cc(C#N)cnn23)cc1Nc1nc(Cc2ccccc2)ns1` [Example 335, (R)-4-((3-benzyl-1,2,4-thiadiazol-5-yl)amino)-6-(3-cyanopyrrolo[1,2-b]pyridazin-7-yl)-N-(2-fluoro-3-hydroxy-3-methylbutyl)nicotinamide] returned an IC50 of 3 nM. In the experiment on TNFα (setting [2]), the EC50 is 100 nM.
The compound `CC(C)(O)[C@H](F)CNC(=O)c1cnc(-c2ccc3cc(C#N)cnn23)cc1Nc1nnc(Cc2ccccc2)o1` [Example 336, (R)-4-((5-benzyl-1,3,4-oxadiazol-2-yl)amino)-6-(3-cyanopyrrolo[1,2-b]pyridazin-7-yl)-N-(2-fluoro-3-hydroxy-3-methyl-butyl)nicotinamide] showed an IC50 on IRAK4 enzyme (setting [1]) of 5 nM. Further, the concentration for a half-maximal effect (EC50) in the experiment with TNFα (setting [2]) amounted to 522 nM.
In the case of `CC(C)(O)[C@H](F)CNC(=O)c1cnc(-c2ccc3cc(C#N)cnn23)cc1Nc1nc(Cc2ccccc2)cs1` [Example 337, (R)-4-((4-benzylthiazol-2-yl)amino)-6-(3-cyanopyrrolo[1,2-b]pyridazin-7-yl)-N-(2-fluoro-3-hydroxy-3-methylbutyl)nicotinamide], the IC50 against IRAK4 enzyme (setting [1]) worked out at 5 nM. Also, the concentration giving a half-maximal response (EC50) with TNFα (setting [2]) amounted to 73 nM.
With `CNC(=O)c1csc(Nc2cc(-c3ccc4cc(C#N)cnn34)ncc2C(=O)NC[C@@H](F)C(C)(C)O)n1` [Example 338, (R)-2-((2-(3-cyanopyrrolo[1,2-b]pyridazin-7-yl)-5-((2-fluoro-3-hydroxy-3-methylbutyl)carbamoyl)pyridin-4-yl)amino)-N-methylthiazole-4-carboxamide], 3 nM corresponded to half-maximal inhibition on IRAK4 enzyme (setting [1]) (IC50). Also, in the experiment on TNFα (setting [2]), the 50% effective concentration (EC50) came out at 304 nM.
`COC(=O)[C@H](C)NC(=O)c1cnc(-c2ccc3cc(C#N)cnn23)cc1NC12CCC(O)(CC1)CC2` [Example 339, methyl (6-(3-cyano-pyrrolo[1,2-b]pyridazin-7-yl)-4-((4-hydroxy-bicyclo[2.2.2]octan-1-yl)amino)nicotinoyl)-L-alaninate]: half-maximal inhibition against IRAK4 enzyme (setting [1]) (IC50) required 1 nM. For the same compound, the EC50 with TNFα (setting [2]) is 264 nM.
At IRAK4 enzyme (setting [1]), `COC(=O)[C@@H](C)NC(=O)c1cnc(-c2ccc3cc(C#N)cnn23)cc1NC12CCC(O)(CC1)CC2` [Example 340, methyl (6-(3-cyano-pyrrolo[1,2-b]pyridazin-7-yl)-4-((4-hydroxy-bicyclo[2.2.2]octan-1-yl)amino)nicotinoyl)-D-alaninate] returned an IC50 of 1 nM. The EC50 in the experiment on TNFα (setting [2]) is 139 nM.
The like results for `COC(=O)CNC(=O)c1cnc(-c2ccc3cc(C#N)cnn23)cc1NC12CCC(O)(CC1)CC2` [Example 341, methyl (6-(3-cyano-pyrrolo[1,2-b]pyridazin-7-yl)-4-((4-hydroxy-bicyclo[2.2.2]octan-1-yl)amino)nicotinoyl) glycinate] were, in that order, less than 1 nM and 16 nM.
Taken in the same sequence, the figures for `CC(C)(CCNC(=O)c1cnc(-c2ccc3cc(C#N)cnn23)cc1NC12CCC(O)(CC1)CC2)NS(C)(=O)=O` [Example 342, 6-(3-cyanopyrrolo[1,2-b]pyridazin-7-yl)-4-((4-hydroxybicyclo[2.2.2]octan-1-yl)amino)-N-(3-methyl-3-(methyl-sulfonamido)butyl) nicotinamide] were 1 nM and 83 nM.
`COC(=O)NC(C)(C)CCNC(=O)c1cnc(-c2ccc3cc(C#N)cnn23)cc1NC12CCC(O)(CC1)CC2` [Example 343, Methyl (4-(6-(3-cyanopyrrolo[1,2-b]pyridazin-7-yl)-4-((4-hydroxybicyclo[2.2.2]octan-1-yl)amino)nicotinamido)-2-methylbutan-2-yl)carbamate] gave an IC50 against IRAK4 enzyme (setting [1]) of 1 nM. Also, the EC50 in the experiment on TNFα (setting [2]) was found to be 38 nM.
